Four compounds from patent US20240400544A1, “N-(HYDROXYALKYL (HETERO)ARYL) TETRAHYDROFURAN CARBOXAMIDE ANALOGS AS MODULATORS OF SODIUM CHANNELS” (VERTEX PHARMACEUTICALS INCORPORATED, priority 2021, published 2024) can be followed below.

pIC50: −log10 of the molar value.

human NaV 1.8, sequence (Q9Y5Y9 126-1722 limits assumed): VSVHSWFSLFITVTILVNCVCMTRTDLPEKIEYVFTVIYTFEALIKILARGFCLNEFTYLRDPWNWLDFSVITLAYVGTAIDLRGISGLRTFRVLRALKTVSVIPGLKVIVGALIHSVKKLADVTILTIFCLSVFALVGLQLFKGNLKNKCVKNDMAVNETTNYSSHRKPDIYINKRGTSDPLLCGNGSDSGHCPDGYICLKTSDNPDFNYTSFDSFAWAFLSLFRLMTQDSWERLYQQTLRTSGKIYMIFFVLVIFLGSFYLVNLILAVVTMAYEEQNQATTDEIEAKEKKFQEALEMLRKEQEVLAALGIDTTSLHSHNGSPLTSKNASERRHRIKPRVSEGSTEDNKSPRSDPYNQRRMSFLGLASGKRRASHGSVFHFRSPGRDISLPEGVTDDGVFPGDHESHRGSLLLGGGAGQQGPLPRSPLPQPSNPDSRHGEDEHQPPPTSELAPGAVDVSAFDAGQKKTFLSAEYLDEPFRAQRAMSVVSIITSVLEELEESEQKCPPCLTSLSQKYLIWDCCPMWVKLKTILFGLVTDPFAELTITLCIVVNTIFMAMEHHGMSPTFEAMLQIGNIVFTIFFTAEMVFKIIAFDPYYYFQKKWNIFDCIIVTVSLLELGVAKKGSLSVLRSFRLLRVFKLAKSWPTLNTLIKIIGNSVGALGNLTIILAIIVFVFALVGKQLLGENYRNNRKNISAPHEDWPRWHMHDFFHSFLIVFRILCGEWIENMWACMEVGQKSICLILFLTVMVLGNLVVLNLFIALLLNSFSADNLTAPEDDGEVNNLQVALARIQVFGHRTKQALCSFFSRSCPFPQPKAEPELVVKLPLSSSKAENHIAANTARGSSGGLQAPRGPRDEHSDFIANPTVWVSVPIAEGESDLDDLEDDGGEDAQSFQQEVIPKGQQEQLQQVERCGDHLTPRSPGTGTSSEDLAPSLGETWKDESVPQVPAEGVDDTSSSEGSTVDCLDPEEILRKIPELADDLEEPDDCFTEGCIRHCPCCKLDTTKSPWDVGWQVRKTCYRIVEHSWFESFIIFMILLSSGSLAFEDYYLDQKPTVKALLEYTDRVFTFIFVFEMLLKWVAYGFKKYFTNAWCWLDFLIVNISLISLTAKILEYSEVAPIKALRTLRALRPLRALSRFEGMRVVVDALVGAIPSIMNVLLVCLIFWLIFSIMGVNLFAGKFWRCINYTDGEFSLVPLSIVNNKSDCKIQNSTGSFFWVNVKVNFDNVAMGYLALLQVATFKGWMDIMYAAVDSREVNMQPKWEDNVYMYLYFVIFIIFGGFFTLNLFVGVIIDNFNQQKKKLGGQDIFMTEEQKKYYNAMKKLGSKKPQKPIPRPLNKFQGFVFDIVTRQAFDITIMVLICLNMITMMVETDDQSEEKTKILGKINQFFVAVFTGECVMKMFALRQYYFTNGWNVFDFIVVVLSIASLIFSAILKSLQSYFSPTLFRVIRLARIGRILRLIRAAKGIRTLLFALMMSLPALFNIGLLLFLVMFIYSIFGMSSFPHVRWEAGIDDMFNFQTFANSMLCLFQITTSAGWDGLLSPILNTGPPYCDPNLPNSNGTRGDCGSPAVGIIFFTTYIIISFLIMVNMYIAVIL

The test deals with human NaV 1.8 (Homo sapiens, UniProt Q9Y5Y9). As to the kind of experiment: E-VIPR Assay Detecting and Measuring NaV Inhibition Properties. It is filed as cell-based. The note with it: HEK cells expressing a truncated form of human NaV 1.8 with full channel activity; electrical stimulation, membrane potential FRET dyes; read-out: measured IC50 value in the E-VIPR Assay. The source says:
E-VIPR Assay Detecting and Measuring NaV Inhibition Properties
Sodium ion channels are voltage-dependent proteins that can be activated by inducing membrane voltage changes by applying electric fields. The electrical stimulation instrument and methods of use, referred to as E-VIPR, are described in International Publication No. WO 2002/008748 A3 and C.-J. Huang et al. Characterization of voltage-gated sodium channel blockers by electrical stimulation and fluorescence detection of membrane potential, 24 Nature Biotech. 439-46 (2006), both of which are incorporated by reference in their entirety. The instrument comprises a microtiter plate handler, an optical system for exciting the coumarin dye while simultaneously recording the coumarin and oxonol emissions, a waveform generator, a current- or voltage-controlled amplifier, and parallel electrode pairs that are inserted into assay plate wells. Under integrated computer control, this instrument passes user-programmed electrical stimulus protocols to cells within the wells of the microtiter plate.
16-20 hours prior to running the assay on E-VIPR, HEK cells expressing a truncated form of human NaV 1.8 with full channel activity were seeded into microtiter 384-well plates, pre-coated with matrigel, at a density of 25,000 cells per well. 2.5-5% KIR2.1 Bacmam virus was added to the final cell suspension before seeding into cell plates. HEK cells were grown in Dulbecco's Modified Eagle's Medium (DMEM) supplemented with 10% FBS (Fetal Bovine Serum, qualified; Sigma #F4135), 1% NEAA (Non-Essential Amino Acids, Gibco #11140), 1% HEPES (Gibco #15630), 1% Pen-Strep (Penicillin-Streptomycin; Gibco #15140) and 5 μg/ml Blasticidin (Gibco #R210-01). Cells were expanded in vented cap cell culture flasks, with 90-95% humidity and 5% CO2.
2.5-5% KIR 2.1 Bacmam virus (produced in-house), prepared as described in Section 3.3 of J. A. Fornwald et al., Gene Expression in Mammalian Cells Using BacMam, a Modified Baculovirus System, 1350 Methods in Molecular Biology 95-116 (2016), the entire contents of which are incorporated by reference. The concentration used can be dependent on viral titer of each batch.
5 mM DiSBAC6(3), a voltage sensitive oxonol acceptor (CAS number 169211-44-3; 5-[3-(1,3-dihexylhexahydro-4,6-dioxo-2-thioxo-5-pyrimidinyl)-2-propen-1-ylidene]-1,3-dihexyldihydro-2-thioxo-4,6(1H,5H)-pyrimidinedione), in dry DMSO. The preparation of DiSBAC6(3) is analogous to that of DiSBAC4(3) as described in Voltage Sensing by Fluorescence Resonance Energy Transfer in Single Cells, Gonzalez, J. E. and Tsien, R. Y. (1995) Biophys. J. 69, 1272-1280.
5 mM CC2-DMPE, a commercially available membrane-bound coumarin phospholipid FRET donor (ThermoFisher Scientific catalog number K1017, CAS number 393782-57-5; tetradecanoic acid, 1,1′-[(1R)-1-[8-(6-chloro-7-hydroxy-2-oxo-2H-1-benzopyran-3-yl)-3-hydroxy-3-oxido-8-oxo-2,4-dioxa-7-aza-3-phosphaoct-1-yl]-1,2-ethanediyl] ester) was prepared in dry DMSO. See also, Improved indicators of cell membrane potential that use fluorescence resonance energy transfer, Gonzalez, J. E. and Tsien, R. Y. (1997) Chem. Biol. 4, 269-277.
Voltage Assay Background Suppression Compound (VABSC-1) is prepared in H2O (89-363 mM, range used to maintain solubility)
Human Serum (HS, Millipore #S1P1-01KL, or Sigma SLBR5469V and SLBR5470V as a 50%/50% mixture, for 25% assay final concentration)
• Sodium Chloride 160 mM (9.35 g/L), Potassium Chloride, 4.5 mM (0.335 g/L), Glucose • 10 mM (1.8 g/L), Magnesium Chloride (Anhydrous) 1 mM (0.095 g/L), Calcium • Chloride 2 mM (0.222 g/L), HEPES 10 mM (2.38 g/L) in water.
• Sodium Chloride 96 mM (5.61 g/L), Potassium Chloride 4.5 mM (0.335 g/L), • Tetramethylammonium (TMA)-Cl 64 mM (7.01 g/L), Glucose 10 mM (1.8 g/L), • Magnesium Chloride (Anhydrous) 1 mM (0.095 g/L), Calcium Chloride 2 mM (0.222 • g/L) HEPES 10 mM (2.38 g/L) in water. […]
In the case of `COc1c([C@H]2[C@H](C(=O)Nc3cnc4c(c3)CCC4O)O[C@@](C)(C(F)(F)F)[C@H]2C)ccc(F)c1F` (single isomer, unassigned) [Compound 3, rel-(2R*,3S*,4S*,5R*)-3-(3,4-difluoro-2-methoxyphenyl)-N-(7-hydroxy-6,7-dihydro-5H-cyclopenta[b]pyridin-3-yl)-4,5-dimethyl-5-(trifluoromethyl)tetrahydrofuran-2-carboxamide], the pIC50 is 6.00 to 7.00.
Then `COc1c([C@H]2[C@H](C(=O)Nc3cnc4c(c3)CCC4O)O[C@@](C)(C(F)(F)F)[C@H]2C)ccc(F)c1F` (single isomer, unassigned) [Compound 4, rel-(2R*,3S*,4S*,5R*)-3-(3,4-difluoro-2-methoxyphenyl)-N-(7-hydroxy-6,7-dihydro-5H-cyclopenta[b]pyridin-3-yl)-4,5-dimethyl-5-(trifluoromethyl)tetrahydrofuran-2-carboxamide], with 7.00 to 8.00; and `C[C@H]1[C@@H](c2ccc(F)c(F)c2OCCN2CCOCC2)[C@H](C(=O)Nc2ccc([C@@H](O)CO)nc2)O[C@@]1(C)C(F)(F)F` [Compound 11, (2R,3S,4S,5R)-3-(3,4-difluoro-2-(2-morpholinoethoxy)phenyl)-N-(6-((R)-1,2-dihydroxyethyl)pyridin-3-yl)-4,5-dimethyl-5-(trifluoromethyl)tetrahydrofuran-2-carboxamide], with 7.00 to 8.00.
On to `COCCOc1c([C@H]2[C@H](C(=O)Nc3cnc(C(O)CO)nc3)O[C@@](C)(C(F)(F)F)[C@H]2C)ccc(F)c1C` (single isomer, unassigned) [Compound 17], for which the pIC50 was 7.00 to 8.00.

In general, pIC50 refers to the IC50 on a negative log10 scale, so that one unit is a factor of ten.
